Measured values published in patent publication US6218417A, “Ace-inhibitor nitric salts” (priority 1997, dated 2001).
Structures can show the parent of a compound that is named as a salt.

Assays:
[1] = test system: angiotensin-I-induced hypertension; assay: Antihypertensive activity: inhibition of angiotensin I-induced hypertension (Laubie et al.); type: in vivo, rats; details: angiotensin I 100 μg/Kg i.v.
Procedure: The antihypertensive activity of the nitrate salts of the compounds of the invention was determined in accordance with the method of Laubie et al., J. Cardiovasc. Pharmacol. 6, 1076, 1984. No 6 rats weighing about 200 to 250 g were used per experimental group. Four groups were formed, which were intraperitoneally treated respectively as shown below:
The doses are referred to the amount of Enalapril (cation) in the salt. The antihypertensive response was evaluated as per-cent inhibition of the hypertension induced by the administration of a dose of 100 μg/Kg i.v. of angiotensin I as described in the above article.

[2] = test system: platelet aggregation (collagen-induced); assay: Platelet-antiaggregating activity, in-vivo collagen model (Pinon et al.); design: species or system rats; details: 10 mg/Kg/os per day (as Enalapril cation) for five days; collagen 2 mg/Kg i.v.; referred to control group
Procedure: The in-vivo model described by Pinon et al., J. Pharm. Methods 12, 79-84, 1984, was used.
Two groups of 6 rats each, weighing about 200 to 250 g, were treated with an oral. dose of 10 mg/Kg/die of Enalapril maleate or nitrate respectively (the dose is referred to the amount of Enalapril cation in the salt) for five days, while a third group acted as a control group. About 18 hours before the last treatment, the animals were fasted. One hour after this treatment the animals were anaesthetised with 10% ethyl urethane (1 g/Kg intraperitoneally) and the left jugular vein and the right carotid artery were cannulated. Collagen (type 6, Sigma) was then administered intravenously at a dose of 2 mg/Kg. Three minutes later two blood samples, A and B, were collected from the carotid artery of each animal.
1.6 ml of EDTA/formalin buffer (24 mM tetrasodium EDTA, 1.3 mM KH2 PO4, 13.4 mM Na2 HPO4) was added to the first sample (sample A) containing 0.4 ml of blood.
The second blood sample (sample B) had the same volume as the previous sample (0.4 ml of blood) but, instead of the buffer, 1.6 ml of a saline solution (physiological NaCl solution) was added. […]
A microscope platelet count was then performed. […] The results shown in Table III are expressed as a % of platelet aggregation and are referred to the % value obtained in the control group.

[3] = test system: bronchial spasm induced by substance P; assay: Bronchial spasm induced by substance P (Subissi et al.; Konzett); type: in vivo, female Guinea pigs; details: for Tidal air change % in bronchial spasm induced by substance P: 30 minutes before substance P (200 μg/Kg)
Procedure: Activity was evaluated measuring the strengthening of bronchial spasm induced by substance P, determined in accordance with the method of Subissi et al., Br. J. Pharmacol. 100, 502-6, 1990. The model described by Subissi is predictive of bronchial side effects due to the administration of ACE inhibitors.
Four groups (6 animals/group) of female Guinea pigs weighing about 300 to 400 g were anaesthetised with ethyl urethane (200 mg/Kg) under artificial pressure at constant positive pressure. The compounds were administered intra-peritoneally 30 minutes before substance P. The salt doses administered were the same as in Example 4. The changes in tidal air were then measured in accordance wuth the method of Konzett, Arch. Exp. Pathol. Pharmacol. 195, 71, 1940, before and after the administration of substance P (200 μg/Kg), with or without the test salts, i.e. Enalapril maleate and nitrate.

[4] = 100 μg/Kg/i.p. (as Enalapril cation)
[5] = 300 μg/Kg/i.p. (as Enalapril cation)

Row | SMILES | Inhibition % for angiotensin-I-induced hypertension [1, 4] [%] | Inhibition % for angiotensin-I-induced hypertension [1, 5] [%] | Antiaggregating activity % [2] [%] | Tidal air change % in bronchial spasm induced by substance P ([3]; 100 μg/Kg/i.p.) | Tidal air change % in bronchial spasm induced by substance P ([3]; 300 μg/Kg/i.p.) | Respiratory profile ([3]; compared to Enalapril maleate, 100 and 300 μg/Kg i.p.)
1 | CCOC(=O)[C@H](CCc1ccccc1)N[C@@H](C)C(=O)N1CCC[C@H]1C(=O)O [Enalapril maleate, reference compound] | 18 | 55 | 5 | +16% | +28% | –
2 | CCOC(=O)[C@H](CCc1ccccc1)N[C@@H](C)C(=O)N1CCC[C@H]1C(=O)O [Enalapril nitrate, (S)-1-[N-[1-(ethoxycarbonyl)-3-phenylpropyl]-L-alanyl]-L-proline] | 35 | 67 | 58 | -5% | -7% | better respiratory profile than Enalapril maleate at both tested doses
